Experimental data taken from US11697648B2, “Fused pyrimidine pyridinone compounds as JAK inhibitors” (THERAVANCE BIOPHARMA R&D IP, LLC, priority 2019, dated 2023).

Columns and labels:
JAK1 = JAK1 (Homo sapiens (Human), UniProt P23458); assay: Biochemical JAK1 kinase assay (LanthaScreen)
Procedure, shortened: (§1)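 GST-JAK + GFP-STAT1 peptide, HEPES pH 7.5/MgCl2/EGTA/Brij-35 buffer; cpd preincubation 1 h RT; ATP start, 1 h RT; stop with 10 mM EDTA + 2 nM Tb-anti-pSTAT1; TR-FRET 520/495. 4-parameter IC50 → pKi (Cheng-Prusoff).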

JAK2 = JAK2 (Homo sapiens (Human), UniProt O60674); assay: Biochemical JAK2 kinase assay (LanthaScreen)
JAK2, sequence (O60674 whole entry): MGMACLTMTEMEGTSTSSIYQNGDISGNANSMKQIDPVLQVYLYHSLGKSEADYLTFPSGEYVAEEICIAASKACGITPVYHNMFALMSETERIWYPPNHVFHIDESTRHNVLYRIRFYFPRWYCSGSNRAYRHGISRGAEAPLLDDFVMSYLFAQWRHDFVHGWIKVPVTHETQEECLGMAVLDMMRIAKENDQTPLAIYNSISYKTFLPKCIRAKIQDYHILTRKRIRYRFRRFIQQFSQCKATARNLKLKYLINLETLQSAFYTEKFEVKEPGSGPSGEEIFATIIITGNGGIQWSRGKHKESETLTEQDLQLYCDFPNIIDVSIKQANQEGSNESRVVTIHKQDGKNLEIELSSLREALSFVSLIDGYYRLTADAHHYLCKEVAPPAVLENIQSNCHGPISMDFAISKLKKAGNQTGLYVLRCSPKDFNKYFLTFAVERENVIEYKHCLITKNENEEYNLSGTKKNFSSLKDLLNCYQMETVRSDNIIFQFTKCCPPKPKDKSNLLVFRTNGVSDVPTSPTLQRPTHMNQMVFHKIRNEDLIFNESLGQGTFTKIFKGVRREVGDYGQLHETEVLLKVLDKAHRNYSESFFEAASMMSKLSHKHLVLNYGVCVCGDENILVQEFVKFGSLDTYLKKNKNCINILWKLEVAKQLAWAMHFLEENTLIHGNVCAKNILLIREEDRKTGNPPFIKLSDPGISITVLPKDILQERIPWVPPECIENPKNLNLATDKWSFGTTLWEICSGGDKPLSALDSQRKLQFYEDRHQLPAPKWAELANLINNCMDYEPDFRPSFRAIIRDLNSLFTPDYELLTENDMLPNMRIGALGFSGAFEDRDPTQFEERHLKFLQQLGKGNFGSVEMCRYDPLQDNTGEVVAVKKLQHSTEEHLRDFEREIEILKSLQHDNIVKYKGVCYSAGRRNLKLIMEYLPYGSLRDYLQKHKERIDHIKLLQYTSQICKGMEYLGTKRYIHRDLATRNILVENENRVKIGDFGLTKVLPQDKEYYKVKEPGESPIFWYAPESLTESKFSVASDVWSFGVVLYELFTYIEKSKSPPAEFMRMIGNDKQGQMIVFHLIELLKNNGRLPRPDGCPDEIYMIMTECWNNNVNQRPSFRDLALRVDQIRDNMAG
Procedure, shortened: as §1

JAK3 = JAK3 (Homo sapiens (Human), UniProt P52333); assay: Biochemical JAK3 kinase assay (LanthaScreen); conditions: for JAK3 (pKi)-JAK1 (pKi): selectivity JAK3 over JAK1, difference of pKi
JAK3, sequence (P52333 whole entry): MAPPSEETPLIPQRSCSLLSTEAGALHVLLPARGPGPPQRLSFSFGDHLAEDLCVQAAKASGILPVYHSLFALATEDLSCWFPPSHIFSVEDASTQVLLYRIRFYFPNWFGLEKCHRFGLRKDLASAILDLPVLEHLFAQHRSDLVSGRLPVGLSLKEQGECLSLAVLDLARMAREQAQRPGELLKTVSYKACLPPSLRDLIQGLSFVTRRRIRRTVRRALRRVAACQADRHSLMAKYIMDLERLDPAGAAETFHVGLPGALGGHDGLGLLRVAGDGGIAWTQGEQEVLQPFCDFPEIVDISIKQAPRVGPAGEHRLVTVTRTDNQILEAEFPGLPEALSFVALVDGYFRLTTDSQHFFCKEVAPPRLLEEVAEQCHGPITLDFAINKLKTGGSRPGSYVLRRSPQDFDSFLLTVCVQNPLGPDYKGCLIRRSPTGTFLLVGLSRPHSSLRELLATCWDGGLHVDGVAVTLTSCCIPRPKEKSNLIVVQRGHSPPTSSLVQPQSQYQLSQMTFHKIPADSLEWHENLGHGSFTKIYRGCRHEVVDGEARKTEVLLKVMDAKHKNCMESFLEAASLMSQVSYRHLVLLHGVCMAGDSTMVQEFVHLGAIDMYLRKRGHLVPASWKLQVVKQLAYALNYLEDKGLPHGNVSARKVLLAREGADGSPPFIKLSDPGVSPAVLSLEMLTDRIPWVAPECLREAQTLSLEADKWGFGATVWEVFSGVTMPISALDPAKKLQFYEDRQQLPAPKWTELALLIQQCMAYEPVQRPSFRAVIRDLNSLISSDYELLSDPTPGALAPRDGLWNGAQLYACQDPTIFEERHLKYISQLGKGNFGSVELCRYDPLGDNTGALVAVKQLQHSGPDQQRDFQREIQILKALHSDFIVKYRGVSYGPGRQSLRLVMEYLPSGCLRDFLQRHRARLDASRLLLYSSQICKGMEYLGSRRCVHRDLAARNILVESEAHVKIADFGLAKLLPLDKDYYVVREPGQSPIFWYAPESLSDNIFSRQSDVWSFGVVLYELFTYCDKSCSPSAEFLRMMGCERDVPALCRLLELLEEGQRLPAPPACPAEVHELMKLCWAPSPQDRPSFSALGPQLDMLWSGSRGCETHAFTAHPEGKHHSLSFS
Procedure, shortened: as §1

Tyk2 = Tyk2 (Homo sapiens (Human), UniProt P29597); assay: Biochemical Tyk2 kinase assay (LanthaScreen)
Tyk2, sequence (P29597 whole entry): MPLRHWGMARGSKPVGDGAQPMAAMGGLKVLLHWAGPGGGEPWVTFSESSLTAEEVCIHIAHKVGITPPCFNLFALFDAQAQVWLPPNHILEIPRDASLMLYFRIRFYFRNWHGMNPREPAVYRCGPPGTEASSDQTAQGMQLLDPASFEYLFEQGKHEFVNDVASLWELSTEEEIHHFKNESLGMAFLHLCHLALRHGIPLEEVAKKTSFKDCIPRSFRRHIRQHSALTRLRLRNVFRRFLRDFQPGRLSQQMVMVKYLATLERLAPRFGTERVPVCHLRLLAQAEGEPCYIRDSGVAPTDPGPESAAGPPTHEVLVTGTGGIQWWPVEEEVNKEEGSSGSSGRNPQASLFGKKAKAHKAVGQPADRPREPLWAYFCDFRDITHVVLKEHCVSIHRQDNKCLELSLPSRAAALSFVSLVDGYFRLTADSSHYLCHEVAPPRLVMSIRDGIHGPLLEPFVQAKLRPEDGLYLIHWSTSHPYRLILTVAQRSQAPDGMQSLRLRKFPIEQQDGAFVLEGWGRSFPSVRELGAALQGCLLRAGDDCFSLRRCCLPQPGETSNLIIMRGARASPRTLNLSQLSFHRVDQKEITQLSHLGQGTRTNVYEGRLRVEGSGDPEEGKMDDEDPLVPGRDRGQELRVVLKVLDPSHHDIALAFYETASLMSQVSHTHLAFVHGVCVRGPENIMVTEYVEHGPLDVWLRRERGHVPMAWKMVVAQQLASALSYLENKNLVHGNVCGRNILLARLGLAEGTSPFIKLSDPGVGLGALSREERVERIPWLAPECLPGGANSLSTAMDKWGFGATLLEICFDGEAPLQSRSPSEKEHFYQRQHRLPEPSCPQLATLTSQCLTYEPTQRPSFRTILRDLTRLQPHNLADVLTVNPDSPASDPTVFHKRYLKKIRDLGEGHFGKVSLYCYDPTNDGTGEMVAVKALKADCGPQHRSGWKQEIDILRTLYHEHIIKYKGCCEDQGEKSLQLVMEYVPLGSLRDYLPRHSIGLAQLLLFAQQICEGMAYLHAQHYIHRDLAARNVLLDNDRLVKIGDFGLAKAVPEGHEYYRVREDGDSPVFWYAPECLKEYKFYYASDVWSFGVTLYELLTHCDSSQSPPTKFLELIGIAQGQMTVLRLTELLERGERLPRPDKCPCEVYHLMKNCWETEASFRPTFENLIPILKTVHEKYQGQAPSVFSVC
Procedure, shortened: as §1

[1] = system: IL-2 stimulated STAT5 phosphorylation in Tall-1 human T cell line (JAK3); assay: Cellular JAK3 potency assay: inhibition of IL-2 stimulated pSTAT5 in Tall-1 T cells; type: cell-based; conditions: IL-2 stimulated pSTAT5, Tall-1 T cells
Procedure, shortened: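 AlphaLISA SureFire Ultra measures STAT5 Tyr694/699 phosphorylation in lysed Tall-1 human T cells. Cells were exposed to compound for 1 h at 37 °C before a 30 min IL-2 challenge (300 ng/ml final). Values are pIC50 means with standard deviation from signal-versus-concentration curves.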

Caco-2 cell monolayers = assay: Caco-2 permeation assay; type: in vitro ADME; conditions: 5 μM, A-B direction, with Verapamil (25 μM)
Procedure, shortened: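 Passive A-to-B permeability with P-gp inhibited by verapamil (25 μM); compound at 5 μM, n=2. Both compartments sampled at t0 and t120 and quantified by LC-MS/MS, giving apparent permeability in cm/sec from flux, area and concentration.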

JAK1, sequence (P23458 whole entry): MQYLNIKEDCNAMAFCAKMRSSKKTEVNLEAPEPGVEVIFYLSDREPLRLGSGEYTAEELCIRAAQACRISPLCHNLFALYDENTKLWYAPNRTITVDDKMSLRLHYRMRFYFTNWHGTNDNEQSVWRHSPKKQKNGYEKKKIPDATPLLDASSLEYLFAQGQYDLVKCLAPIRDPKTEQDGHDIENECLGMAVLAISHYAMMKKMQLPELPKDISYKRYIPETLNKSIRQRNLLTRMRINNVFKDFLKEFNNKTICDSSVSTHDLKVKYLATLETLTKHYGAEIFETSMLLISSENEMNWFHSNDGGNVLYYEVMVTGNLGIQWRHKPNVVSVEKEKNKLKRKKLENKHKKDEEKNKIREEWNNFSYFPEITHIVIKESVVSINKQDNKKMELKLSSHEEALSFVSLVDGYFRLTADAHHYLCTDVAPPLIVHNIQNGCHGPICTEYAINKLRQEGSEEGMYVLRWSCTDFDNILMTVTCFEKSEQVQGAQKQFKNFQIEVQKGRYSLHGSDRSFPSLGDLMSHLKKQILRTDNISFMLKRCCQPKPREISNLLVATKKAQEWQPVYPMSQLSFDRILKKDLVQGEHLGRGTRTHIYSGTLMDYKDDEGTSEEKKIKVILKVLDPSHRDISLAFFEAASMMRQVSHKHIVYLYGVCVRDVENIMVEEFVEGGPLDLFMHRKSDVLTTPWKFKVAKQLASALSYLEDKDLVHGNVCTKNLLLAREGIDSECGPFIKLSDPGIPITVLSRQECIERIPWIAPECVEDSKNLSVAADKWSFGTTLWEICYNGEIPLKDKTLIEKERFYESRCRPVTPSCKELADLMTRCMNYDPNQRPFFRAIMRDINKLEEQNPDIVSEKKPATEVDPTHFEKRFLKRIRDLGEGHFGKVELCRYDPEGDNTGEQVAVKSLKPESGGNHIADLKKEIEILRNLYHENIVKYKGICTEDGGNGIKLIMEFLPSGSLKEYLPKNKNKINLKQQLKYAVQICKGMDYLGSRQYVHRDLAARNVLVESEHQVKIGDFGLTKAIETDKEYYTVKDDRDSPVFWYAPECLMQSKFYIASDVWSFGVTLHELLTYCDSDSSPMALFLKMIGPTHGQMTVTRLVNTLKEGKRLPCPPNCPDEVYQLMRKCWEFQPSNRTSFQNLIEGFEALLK

SMILES	JAK 1 (pKi) (JAK1)	JAK 2 (pKi) (JAK2)	JAK 3 (pKi) (JAK3)	JAK3 (pKi)-JAK1 (pKi) (JAK3)	Tyk 2 (pKi) (Tyk2)	Tall-1 (pIC50) [1]	Caco Kp (Caco-2 cell monolayers)
C=CC(=O)N1CC(CCn2c(=O)ccc3cnc(Nc4ccc(N5CCN(C)CC5)cc4F)nc32)C1 [Example 141]	E (E represents a pKi value of 7 or below (Ki of 100 nM or above))	E (E represents a pKi value of 7 or below (Ki of 100 nM or above))	B (B represents pKi value between 9 and 10 (Ki between 1 nM and 0.1 nM))	A (A represents a value of 3 or above)	E (E represents a pKi value of 7 or below (Ki of 100 nM or above))	B (B represents a pC50 value between 6.7 (included) and 7.5 (IC50 between 200 nM and 32 nM))	C (C represents a value between 10×10^−6 and 30×10^−6 cm/sec)
C=CC(=O)N1CC(CCn2c(=O)ccc3cnc(Nc4ccc(N5CCC(C)CC5)cc4)nc32)C1 [Example 142]	E (E represents a pKi value of 7 or below (Ki of 100 nM or above))	E (E represents a pKi value of 7 or below (Ki of 100 nM or above))	A (A represents a pKi value≥10 (Ki≤0.1 nM))	A (A represents a value of 3 or above)	E (E represents a pKi value of 7 or below (Ki of 100 nM or above))	B (B represents a pC50 value between 6.7 (included) and 7.5 (IC50 between 200 nM and 32 nM))	C (C represents a value between 10×10^−6 and 30×10^−6 cm/sec)
C=CC(=O)N1CC(CCn2c(=O)ccc3cnc(Nc4ccc(N5CCCCC5)cc4)nc32)C1 [Example 143]	E (E represents a pKi value of 7 or below (Ki of 100 nM or above))	E (E represents a pKi value of 7 or below (Ki of 100 nM or above))	A (A represents a pKi value≥10 (Ki≤0.1 nM))	A (A represents a value of 3 or above)	E (E represents a pKi value of 7 or below (Ki of 100 nM or above))	B (B represents a pC50 value between 6.7 (included) and 7.5 (IC50 between 200 nM and 32 nM))	C (C represents a value between 10×10^−6 and 30×10^−6 cm/sec)
C=CC(=O)N1CCN(CCn2c(=O)ccc3cnc(Nc4ccc(N5CCN(C(=O)OC)CC5)cc4)nc32)CC1 [Example 145]	E (E represents a pKi value of 7 or below (Ki of 100 nM or above))	E (E represents a pKi value of 7 or below (Ki of 100 nM or above))	B (B represents pKi value between 9 and 10 (Ki between 1 nM and 0.1 nM))	A (A represents a value of 3 or above)	E (E represents a pKi value of 7 or below (Ki of 100 nM or above))	B (B represents a pC50 value between 6.7 (included) and 7.5 (IC50 between 200 nM and 32 nM))	B (B represents a value between 5×10^−6 and 10×10^−6 cm/sec)
C=CC(=O)N1CC(CCn2c(=O)ccc3cnc(Nc4ccc(N5CCN(C(=O)CS(C)(=O)=O)CC5)cc4)nc32)C1 [Example 151]	E (E represents a pKi value of 7 or below (Ki of 100 nM or above))	E (E represents a pKi value of 7 or below (Ki of 100 nM or above))	B (B represents pKi value between 9 and 10 (Ki between 1 nM and 0.1 nM))	A (A represents a value of 3 or above)	E (E represents a pKi value of 7 or below (Ki of 100 nM or above))	C (C represents a pIC50 value between 6 and 6.7 (IC50 between 1 μM and 200 nM))	A (A represents a value below 5×10^−6 cm/sec)
C=CC(=O)N1CC(CCn2c(=O)ccc3cnc(Nc4ccc(N5CCC(F)(F)CC5)cc4)nc32)C1 [Example 157]	E (E represents a pKi value of 7 or below (Ki of 100 nM or above))	E (E represents a pKi value of 7 or below (Ki of 100 nM or above))	A (A represents a pKi value≥10 (Ki≤0.1 nM))	A (A represents a value of 3 or above)	E (E represents a pKi value of 7 or below (Ki of 100 nM or above))	B (B represents a pC50 value between 6.7 (included) and 7.5 (IC50 between 200 nM and 32 nM))	C (C represents a value between 10×10^−6 and 30×10^−6 cm/sec)
C=CC(=O)N1CC(CCn2c(=O)ccc3cnc(Nc4ccc(N5CCN(C)[C@H](C)C5)cc4)nc32)C1 [Example 162]	E (E represents a pKi value of 7 or below (Ki of 100 nM or above))	E (E represents a pKi value of 7 or below (Ki of 100 nM or above))	A (A represents a pKi value≥10 (Ki≤0.1 nM))	A (A represents a value of 3 or above)	E (E represents a pKi value of 7 or below (Ki of 100 nM or above))	A (A represents a pIC50 value≥7.5 (IC50≤32 nM))	C (C represents a value between 10×10^−6 and 30×10^−6 cm/sec)
C=CC(=O)N1CC(CCn2c(=O)ccc3cnc(Nc4ccc(N5CCN(C(C)=O)[C@@H](C)C5)cc4)nc32)C1 [Example 167]	E (E represents a pKi value of 7 or below (Ki of 100 nM or above))	E (E represents a pKi value of 7 or below (Ki of 100 nM or above))	A (A represents a pKi value≥10 (Ki≤0.1 nM))	A (A represents a value of 3 or above)	E (E represents a pKi value of 7 or below (Ki of 100 nM or above))	B (B represents a pC50 value between 6.7 (included) and 7.5 (IC50 between 200 nM and 32 nM))	A (A represents a value below 5×10^−6 cm/sec)
C=CC(=O)N1CCN(CCn2c(=O)ccc3cnc(Nc4ccc(N5CCN(S(=O)(=O)CCOC)CC5)cc4)nc32)[C@@H](C)C1 [Example 170]	E (E represents a pKi value of 7 or below (Ki of 100 nM or above))	E (E represents a pKi value of 7 or below (Ki of 100 nM or above))	A (A represents a pKi value≥10 (Ki≤0.1 nM))	A (A represents a value of 3 or above)	E (E represents a pKi value of 7 or below (Ki of 100 nM or above))	A (A represents a pIC50 value≥7.5 (IC50≤32 nM))	B (B represents a value between 5×10^−6 and 10×10^−6 cm/sec)
C=CC(=O)N1CCN(CCn2c(=O)ccc3cnc(Nc4ccc(N5CCN(C(=O)OC)CC5)cc4)nc32)[C@@H](C)C1 [Example 172]	E (E represents a pKi value of 7 or below (Ki of 100 nM or above))	E (E represents a pKi value of 7 or below (Ki of 100 nM or above))	B (B represents pKi value between 9 and 10 (Ki between 1 nM and 0.1 nM))	A (A represents a value of 3 or above)	E (E represents a pKi value of 7 or below (Ki of 100 nM or above))	A (A represents a pIC50 value≥7.5 (IC50≤32 nM))	C (C represents a value between 10×10^−6 and 30×10^−6 cm/sec)
C=CC(=O)N1CC(CCn2c(=O)ccc3cnc(Nc4ccc(N5C[C@@H](C)N(C(C)=O)[C@@H](C)C5)cc4)nc32)C1 [Example 178]	E (E represents a pKi value of 7 or below (Ki of 100 nM or above))	E (E represents a pKi value of 7 or below (Ki of 100 nM or above))	A (A represents a pKi value≥10 (Ki≤0.1 nM))	A (A represents a value of 3 or above)	E (E represents a pKi value of 7 or below (Ki of 100 nM or above))	B (B represents a pC50 value between 6.7 (included) and 7.5 (IC50 between 200 nM and 32 nM))	C (C represents a value between 10×10^−6 and 30×10^−6 cm/sec)
